Each structure is given as a SMILES string.

The target in the assay is T1, human PAD4 (Homo sapiens, UniProt Q9UM07).
T1 construct: human PAD4 (NM_012387), A2P663, was PCR amplified; His-SUMO (N, cleaved yes); made in house; host or cells: E. coli BL21(DE3)
T1 sequence (Q9UM07 2-663): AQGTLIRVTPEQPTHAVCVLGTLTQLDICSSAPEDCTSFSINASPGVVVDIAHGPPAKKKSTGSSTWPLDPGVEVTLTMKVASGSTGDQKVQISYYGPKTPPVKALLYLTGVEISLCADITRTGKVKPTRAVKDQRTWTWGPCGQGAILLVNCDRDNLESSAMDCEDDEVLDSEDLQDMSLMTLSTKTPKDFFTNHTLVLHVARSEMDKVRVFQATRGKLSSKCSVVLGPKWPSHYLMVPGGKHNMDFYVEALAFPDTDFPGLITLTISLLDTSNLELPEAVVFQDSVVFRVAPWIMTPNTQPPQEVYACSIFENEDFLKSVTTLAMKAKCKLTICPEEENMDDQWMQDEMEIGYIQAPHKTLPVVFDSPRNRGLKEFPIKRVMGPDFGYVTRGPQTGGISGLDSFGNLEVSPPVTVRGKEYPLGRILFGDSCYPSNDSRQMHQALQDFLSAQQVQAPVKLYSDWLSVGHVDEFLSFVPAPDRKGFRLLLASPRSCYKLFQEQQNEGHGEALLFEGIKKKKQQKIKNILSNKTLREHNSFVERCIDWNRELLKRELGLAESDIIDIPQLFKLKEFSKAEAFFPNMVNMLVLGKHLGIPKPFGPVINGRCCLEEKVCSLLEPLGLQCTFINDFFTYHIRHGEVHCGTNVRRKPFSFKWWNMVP
Kind of assay: In vitro PAD4 BAEE biochemical assay. Conditions: human PAD4, BAEE substrate; 5 nM PAD4, 2 mM calcium chloride, 3 mM BAEE; geometric mean of multiple experiments. The method in brief:
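Ammonia generated from BAEE serves as the readout, measured by o-phthalaldehyde after EDTA termination. Final conditions: 5 nM human PAD4 (SUMO tag cleaved), 2 mM CaCl2, 3 mM BAEE, pH 7.6 MOPS buffer, 25 °C for 2 h following a 30-min compound preincubation.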
Turning to `CCc1ccc2cc(-c3nc4cc(C(=O)N5[C@H]6CC[C@@H]5[C@H](N)C6)cc(OC)n4c3C3CCC3)n(CC3CC3)c2n1` [Example 577, [(1~{R},2~{R},4~{S})-2-amino-7-azabicyclo [2.2.1]heptan-7-yl]-[3-cyclobutyl-2-[1-(cyclopropylmethyl)-6-ethylpyrrolo[2,3-b]pyridin-2-yl]-5-methoxyimidazo [1,2-a]pyridin-7-yl]methanone], the IC50 stood at 0.996 µM. For `COc1cc(C(=O)N2[C@H]3CC[C@@H]2[C@H](N)C3)cc2nc(-c3cc4ccc(N[C@@H](C)C(F)(F)F)nc4n3CC3CC3)c(C)n12` [Example 448, [(1~{R},2~{R},4~{S})-2-amino-7-azabicyclo [2.2.1]heptan-7-yl]-[2-[1-(cyclopropylmethyl)-6-[[(2~{S})-1,1,1-trifluoropropan-2-yl]amino]pyrrolo[2,3-b]pyridin-2-yl]-5-methoxy-3-methylimidazo[1,2-a]pyridin-7-yl]methanone], the IC50 is 6.71 µM. Take `COc1cc(C(=O)N2C[C@H](N)CC[C@@H]2C)cc2nc(-c3cc4ccc(N(C(F)F)S(C)(=O)=O)nc4n3CC3CC3)c(C)n12` [Example 412, ~{N}-[2-[7-[(2~{S},5~{R})-5-amino-2-methylpiperidine-1-carbonyl]-5-methoxy-3-methylimidazo [1,2-a]pyridin-2-yl]-1-(cyclopropylmethyl)pyrrolo-[2,3b]pyridin-6-yl]-~{N}-(difluoromethyl) methanesulfonamide]: the IC50 is 0.156 µM.

With `COc1cc(C(=O)N2[C@H]3CC[C@@H]2[C@H](N)C3)cc2nc(-c3cc4ccc([C@@H](C)NC(=O)C5(C)CC5(F)F)nc4n3CC3CC3)c(C)n12` (stereo partly shown) [Example 102, ~{N}-[(1~{R})-1-[2-[7-[(1~{R},2~{R},4~{S})-2-amino-7-azabicyclo[2.2.1]heptane-7-carbonyl]-5-methoxy-3-methylimidazo [1,2-a]pyridin-2-yl]-1-(cyclopropylmethyl)pyrrolo [2,3-b]pyridin-6-yl]ethyl]-2,2-difluoro-1-methylcyclopropane-1-carboxamide], the IC50 worked out at 0.0466 µM. Consider `COc1cc(C(=O)N2[C@H]3CC[C@@H]2[C@H](N)C3)cc2nc(-c3cc4ccc([C@@H](C)NC(=O)N(C)Cc5ccccc5)nc4n3CC3CC3)c(C)n12` [Example 240, 3-[(1~{R})-1-[2-[7-[(1~{R},2~{R},4~{S})-2-amino-7-azabicyclo[2.2.1]heptane-7-carbonyl]-5-methoxy-3-methylimidazo [1,2-a]pyridin-2-yl]-1-(cyclopropylmethyl)pyrrolo [2,3-b]pyridin-6-yl]ethyl]-1-benzyl-1-methylurea], for which the IC50 is 0.0844 µM. Turning to `COc1cc(C(=O)N2[C@H]3CC[C@@H]2[C@H](N)C3)cc2nc(-c3cc4ccc([C@@H](C)NC(=O)NCc5cccnc5)nc4n3CC3CC3)c(C)n12` [Example 226, 1-[(1~{R})-1-[2-[7-[(1~{R},2~{R},4~{S})-2-amino-7-azabicyclo[2.2.1]heptane-7-carbonyl]-5-methoxy-3-methylimidazo [1,2-a]pyridin-2-yl]-1-(cyclopropylmethyl)pyrrolo [2,3-b]pyridin-6-yl]ethyl]-3-(pyridin-3-ylmethyl)urea], the IC50 is 0.0423 µM. Consider `COc1cc(C(=O)N2C[C@@H](N)[C@H](F)C2)cc2nc(-c3cc4ccc(N(C(F)F)S(C)(=O)=O)nc4n3CC3CC3)c(C)n12` [Example 280, ~{N}-[2-[7-[(3~{R}, 4~{R})-3-amino-4-fluoropyrrolidine-1-carbonyl]-5-methoxy-3-methylimidazo [1,2-a]pyridin-2-yl]-1-(cyclopropylmethyl)pyrrolo[2,3-b]pyridin-6-yl]-~{N}-(difluoromethyl) methanesulfonamide], for which the IC50 came out at 33.8 µM.

In the case of `COc1cc(C(=O)N2C[C@H]3CC[C@@H]2[C@@H](N)C3)cc2nc(-c3cc4ccc(N(C(F)F)S(C)(=O)=O)nc4n3CC3CC3)c(C)n12` [Example 368, ~{N}-[2-[7-[(1~{R},4~{S}, 6~{S})-6-amino-2-azabicyclo[2.2.2]octane-2-carbonyl]-5-methoxy-3-methylimidazo[1,2-a]pyridin-2-yl]-1-(cyclopropylmethyl)pyrrolo [2,3-b]pyridin-6-yl]-~{N}-(difluoromethyl) methanesulfonamide], the IC50 stood at 43.6 µM. The result for `COc1cc(C(=O)N2[C@@H]3CC[C@H]2C[C@@H](N)C3)cc2nc(-c3cc4ccc(N(C(F)F)S(C)(=O)=O)nc4n3CC3CC3)c(C)n12` [Example 326, ~{N}-[2-[7-[(1~{R}, 5~{S})-3-amino-8-azabicyclo[3.2.1]octane-8-carbonyl]-5-methoxy-3-methylimidazo[1,2-a]pyridin-2-yl]-1-(cyclopropylmethyl)pyrrolo[2,3-b]pyridin-6-yl]-~{N}-(difluoromethyl) methanesulfonamide] reads 3.56 µM. With `COc1cc(C(=O)N2[C@H]3CC[C@@H]2[C@H](N)C3)cc2nc(-c3cc4ccc([C@@H](C)NC(=O)NC5CCOCC5)nc4n3CC3CC3)c(C)n12` [Example 214, 1-[(1~{R})-1-[2-[7-[(1~{R},2~{R},4~{S})-2-amino-7-azabicyclo[2.2.1]heptane-7-carbonyl]-5-methoxy-3-methylimidazo [1,2-a]pyridin-2-yl]-1-(cyclopropylmethyl)pyrrolo [2,3-b]pyridin-6-yl]ethyl]-3-(oxan-4-yl)urea], the IC50 worked out at 0.045 µM. Next, `COc1cc(C(=O)N2[C@H]3CC[C@@H]2[C@H](N)C3)cc2nc(-c3cc4ccc([C@@H](C)NC(=O)N5CCCC5)nc4n3CC3CC3)c(C3CC3)n12` [Example 249, ~{N}-[(1~{R})-1-[2-[7-[(1~{R},2~{R},4~{S})-2-amino-7-azabicyclo[2.2.1]heptane-7-carbonyl]-3-cyclopropyl-5-methoxyimidazo[1,2-a]pyridin-2-yl]-1-(cyclopropylmethyl)pyrrolo [2,3-b]pyridin-6-yl]ethyl] pyrrolidine-1-carboxamide]: 0.066 µM. For `COc1cc(C(=O)N2CCC[C@@H](N)C2)cc2nc(-c3cc4ccc(C(C)n5ccnn5)nc4n3CC3CC3)c(C)n12` (stereo partly shown) [Example 537, [(3~{R})-3-aminopiperidin-1-yl]-[2-[1-(cyclopropylmethyl)-6-[1-(triazol-1-yl)ethyl]pyrrolo[2,3-b]pyridin-2-yl]-5-methoxy-3-methylimidazo[1,2-a]pyridin-7-yl]methanone], the concentration for half-maximal inhibition (IC50) worked out at 0.571 µM.

In the case of `COc1cc(C(=O)N2[C@H]3CC[C@@H]2[C@H](N)C3)cc2nc(-c3cc4ccc([C@@H](C)NC(=O)c5ccc(Cl)nc5)nc4n3CC3CC3)c(C)n12` [Example 48, ~{N}-[(1~{R})-1-[2-[7-[(1~{R},2~{R},4~{S})-2-amino-7-azabicyclo[2.2.1]heptane-7-carbonyl]-5-methoxy-3-methylimidazo [1,2-a]pyridin-2-yl]-1-(cyclopropylmethyl)pyrrolo[2,3-b]pyridin-6-yl]ethyl]-6-chloropyridine-3-carboxamide], the IC50 was found to be 0.0344 µM. The result for `COc1cc(C(=O)N2[C@H]3CC[C@@H]2[C@H](N)C3)cc2nc(-c3cc4ccc([C@@H](C)NC(=O)N5CC(C(=O)O)C5)nc4n3CC3CC3)c(C)n12` [Example 237] reads 0.0356 µM. Regarding `COc1cc(C(=O)N2CCC[C@@H](N)C2)cc2nc(-c3cc4ccc(O[C@@H](C)C(=O)N(C)C)nc4n3CC3CC3)c(C)n12` [Example 617, (2~{S})-2-[2-[7-[(3~{R})-3-aminopiperidine-1-carbonyl]-5-methoxy-3-methylimidazo[1,2-a]pyridin-2-yl]-1-(cyclopropylmethyl)pyrrolo [2,3-b]pyridin-6-yl]oxy-~{N},~{N}-dimethylpropanamide], the IC50 stood at 6.98 µM.

With `COc1cc(C(=O)N2[C@H]3CC[C@@H]2[C@H](N)C3)cc2nc(-c3cc4ccc([C@H](NC(=O)C5(C#N)CC5)C(F)(F)F)nc4n3CC3CC3)c(C)n12` [Example 191, ~{N}-[(1~{S})-1-[2-[7-[(1~{R},2~{R},4~{S})-2-amino-7-azabicyclo[2.2.1]heptane-7-carbonyl]-5-methoxy-3-methylimidazo [1,2-a]pyridin-2-yl]-1-(cyclopropylmethyl)pyrrolo [2,3-b]pyridin-6-yl]-2,2,2-trifluoroethyl]-1-cyanocyclopropane-1-carboxamide], the IC50 came out at 0.708 µM. The result for `CCO[C@@H]1CCN(C(=O)c2cc(OC)n3c(C)c(-c4cc5ccc([C@@H](C)NC(=O)c6ccccc6)nc5n4CC4CC4)nc3c2)C[C@@H]1N` [Example 112, ~{N}-[(1~{R})-1-[2-[7-[(3~{S},4~{R})-3-amino-4-ethoxypiperidine-1-carbonyl]-5-methoxy-3-methylimidazo[1,2-a]pyridin-2-yl]-1-(cyclopropylmethyl)pyrrolo [2,3-b]pyridin-6-yl]ethyl]benzamide] reads 0.307 µM; that for `COc1cc(C(=O)N2[C@H]3CC[C@@H]2[C@H](N)C3)cc2nc(-c3cc4ccc([C@@H](C)NC(=O)C5C(F)(F)C56CC6)nc4n3CC3CC3)c(C)n12` (stereo partly shown) [Example 53, ~{N}-[(1~{R})-1-[2-[7-[(1~{R},2~{R}, 4~{S})-2-amino-7-azabicyclo[2.2.1]heptane-7-carbonyl]-5-methoxy-3-methylimidazo[1,2-a]pyridin-2-yl]-1-(cyclopropylmethyl)pyrrolo[2,3-b]pyridin-6-yl]ethyl]-2,2-difluorospiro[2.2] pentane-1-carboxamide], 0.0372 µM. Turning to `CCc1ccc2cc(-c3nc4cc(C(=O)N5CCC[C@@H](N)C5)cc(OC)n4c3N)n(CC3CC3)c2n1` [Example 553, [3-amino-2-[1-(cyclopropylmethyl)-6-ethylpyrrolo[2,3-b]pyridin-2-yl]-5-methoxyimidazo [1,2-a]pyridin-7-yl]-[(3~{R})-3-aminopiperidin-1-yl]methanone], the IC50 came to 0.757 µM.

One may read the IC50 as the concentration needed to halve the response being measured.

For the origin of these results see patent publication US12240862B2, “Inhibitors of peptidylarginine deiminases” (Gilead Sciences, Inc., priority 2020, dated 2025).
